Key:
[1] = tested on: A549; assay: cells; conditions: Homo sapiens, A549, 24 h
Description: Antiproliferative activity against human A549 cells assessed as inhibition of cell growth incubated for 24 hrs by MTT assay

[2] = target: Carbonic anhydrase 9 (Homo sapiens, UniProt Q16790); assay: Inhibition of human transmembrane carbonic anhydrase 9 using 4-nitrophenyl acetate as substrate assessed as inhibition constant by spectrophotometric analysis

| Structure (SMILES) | IC50 [1] | Ki [2] |
| --- | --- | --- |
| NS(=O)(=O)c1ccc(-n2cc(COC(=O)c3ccc4c(c3)C(=O)N(c3ccccc3Cl)C4=O)nn2)cc1 | 290 µM | 0.0186 µM |
| NS(=O)(=O)c1ccc(-n2cc(COC(=O)c3ccc4c(c3)C(=O)N(c3cccc5ccccc35)C4=O)nn2)cc1 | 278 µM | 0.0253 µM |
| NS(=O)(=O)c1ccc(-n2cc(COC(=O)c3ccc4c(c3)C(=O)N(c3ccccc3I)C4=O)nn2)cc1 | 258 µM | 0.0353 µM |
| NS(=O)(=O)c1ccc(-n2cc(COC(=O)c3ccc4c(c3)C(=O)N(c3ccccc3)C4=O)nn2)cc1 | 300 µM | 0.0183 µM |
| N#Cc1ccc(N2C(=O)c3ccc(C(=O)OCc4cn(-c5ccc(S(N)(=O)=O)cc5)nn4)cc3C2=O)cc1 | 266 µM | 0.0286 µM |
| NS(=O)(=O)c1ccc(-n2cc(COC(=O)c3ccc4c(c3)C(=O)N(c3ccc(Cl)cc3)C4=O)nn2)cc1 | 352 µM | 0.0489 µM |

Further compounds by falling IC50 [1], results first:

| IC50 [1] | Ki [2] | Structure (SMILES) |
| --- | --- | --- |
| 253 µM | 0.0245 µM | Cc1cccc(C)c1N1C(=O)c2ccc(C(=O)OCc3cn(-c4ccc(S(N)(=O)=O)cc4)nn3)cc2C1=O |
| 235 µM | 0.05 µM | CCCCCCCCN1C(=O)c2ccc(C(=O)OCc3cn(-c4ccc(S(N)(=O)=O)cc4)nn3)cc2C1=O |
| 231 µM | 0.0229 µM | NS(=O)(=O)c1ccc(-n2cc(COC(=O)c3ccc4c(c3)C(=O)N(c3cccc(F)c3)C4=O)nn2)cc1 |
| 199 µM | 0.035 µM | CCCCN1C(=O)c2ccc(C(=O)OCc3cn(-c4ccc(S(N)(=O)=O)cc4)nn3)cc2C1=O |
| 161 µM | 0.0752 µM | CCCCCCN1C(=O)c2ccc(C(=O)OCc3cn(-c4ccc(S(N)(=O)=O)cc4)nn3)cc2C1=O |
| 130 µM | 0.0239 µM | NS(=O)(=O)c1ccc(-n2cc(COC(=O)c3ccc4c(c3)C(=O)N(Cc3ccc5c(c3)OCO5)C4=O)nn2)cc1 |
| 10.8 µM |  | COc1cccc2c1C(=O)c1c(O)c3c(c(O)c1C2=O)C[C@@](O)(C(=O)CO)C[C@@H]3O[C@H]1C[C@H](N)[C@H](O)[C@H](C)O1 [DOXORUBICIN] |

Source: ChEMBL document CHEMBL5236613, “Exploration of 1,2,3-triazole linked benzenesulfonamide derivatives as isoform selective inhibitors of human carbonic anhydrase” (Bioorg Med Chem, 2023)
